Laboratory results as given in US10953028B2, “Method of treating heterotopic ossification” (THE REGENTS OF THE UNIVERSITY OF MICHIGAN, priority 2015, dated 2021).
Where “and” joins values, the source holds several entries; their conditions need not be identical. Equal values may be shown once.

Legend:
[1] = tested on: caACVR1fl/fl mice injected with cardiotoxin and Ad.cre; conditions: mouse, in vivo
burn/tenotomy mice = assay: Burn/tenotomy trauma-induced HO model (microCT, histology, immunostaining); assay type: in vivo, mouse; conditions: 9 weeks

SMILES: CO[C@H]1C[C@@H]2CC[C@@H](C)[C@@](O)(O2)C(=O)C(=O)N2CCCC[C@H]2C(=O)O[C@H]([C@H](C)C[C@@H]2CC[C@@H](O)[C@H](OC)C2)CC(=O)[C@H](C)/C=C(\C)[C@@H](O)[C@@H](OC)C(=O)[C@H](C)C[C@H](C)/C=C/C=C/C=C/1C [rapamycin]
- total HO normalized volume [1]: 0.0
- total HO volume [1]: 0.00 mm^3 and 0.0 mm^3
- de novo (soft tissue) HO volume (burn/tenotomy mice; rapamycin 5 mg/kg i.p. every other day, control 1.60 mm^3): 0.81 mm^3
- de novo (soft tissue) HO normalized volume (burn/tenotomy mice; rapamycin 5 mg/kg i.p., control = 1.0): 0.51
